Test results as given in paper PMC12813973, “Consequences of Peptide Macrocyclization Revealed by Virus-Inspired β‑Hairpin Mimetics” (ACS Chemical Biology, 2025).
Where two headings read alike, the source gives them in different places. *1 amine or outer side, *2 acyl side, *3 side chain or, on linkers, in order; H or OH if unused. Where a SMILES comes first, the peptide text is derived from it. Bridges are numbered along the chain shown (N, C = ends). [ ]: non-standard residue; d: D form. oXylylene = c1ccc(C[*:2])c(C[*:1])c1; βAla = NCCC(=O)O

Legend:
[1] = target: Peptide 4 (bicyclic: head-to-tail plus o-xylyl C15/C26 cross-link) residue 15 to Cys (native residue not given); K26C; both S-alkylated by the o-xylyl bridge; test: isothermal titration calorimetry (ITC); settings: pH 8.0; 300 mM NaCl; 50 mM Tris pH 8.0 (TBST)
[2] = target: Peptide 2 (head-to-tail monocyclic 018 11-30) none (wild-type side chains; added beta-Ala-beta-Ala linker); test: isothermal titration calorimetry (ITC); settings: pH 8.0; 300 mM NaCl; 50 mM Tris pH 8.0 (TBST)
[3] = target: T1, STAT3 (Homo sapiens, UniProt P40763); test: biochemical; type: binding; settings: for KD: analyte 10 µM (1, 3, 5) or 0.5 µM (4, 6), n.b. – no binding observed; for Kd: full-length STAT3 on 4PCH chip, average of technical replicates ± SD (Fig 3E), SD, read-out: STAT3 KD (GCI waveRAPID); for kon: read-out: ka
T1 construct: STAT3: the gene encoding full-length STAT3 was codon optimised for expression in; MBP (pEXP-MBP vector) (cleaved yes); His tag (IMAC capture, removed with the fusion by TEV and reverse IMAC) (cleaved yes); made in house; host or cells: E. coli T7 Express
Protocol: In such PPIs, the bulk of the binding energy contribution typically stems from backbone interactions, whereas binding specificity is fine-tuned by side-chain contacts. […] We evaluated the binding kinetics of peptides to full-length STAT3 using GCI.
(§1) Grating coupled interferometry (GCI)
(§2) GCI experiments were performed on a Creoptix WaveDELTA instrument (Malvern Panalytical). Full-length STAT1 or STAT3 were immobilised on a 4PCH chip (Malvern Panalytical #4PCH-03) to a density 2000-8000 pg/mm2 using EDC/NHS activation followed by amine coupling. Briefly, proteins (500 nM) were applied onto an activated chip in 10 mM MES pH 6.5, 20 mM NaCl, after which the chip surface was passivated with 1M ethanolamine, pH 8.0.
(§3) The kinetic measurements were perfor med using 20 mM HEPES pH 7.5, 300 mM NaCl, 0.01% Tween-20, 0.0005% DMSO as running buffer. Peptides were tested at 0.5 or 10 μM concentration using the waveRAPID kinetics experiment with the tight binder or intermediate binder mode, respectively.[4] Sensorgrams were fitted in the waveControl software (Malven Panalytical) using the 1:1 kinetic model. […]
GCI sensorgrams depicting RAPID kinetics measurements and fitted kinetic models for peptide binding to full-length STAT3 immobilised on a polycarboxylate hydrogel chip (4PCH). Peptides were applied at 0.5 or 10 μM concentration using the medium or tight binders pulse sequence. The peptides that show negligible Rmax values at 10 μM analyte concentration were classified as non-binding.
(1 picture or pasted object on this page, not shown here)

[4] = Solubility as required for ITC titration; type: physicochemical; settings: ITC needs approximately 100-200 μM peptide in reaction buffer with 2% DMSO
[5] = target: T2, STAT1 (Homo sapiens, UniProt P42224); test: Grating-coupled interferometry (GCI) waveRAPID kinetics, immobilised full-length STAT1; type: binding; settings: for Kd: 20 mM HEPES pH 7.5, 300 mM NaCl, 0.01% Tween-20, 1:1 kinetic model, average of 2–4 technical replicates ± SD, SD; for kd / kon at 0.5 µM: analyte 0.5 µM; for kon at 0.5 µM: read-out: ka
T2 construct: full-length STAT1 (Uniprot #P42224-1) was expressed in E. coli; His tag (pEXP-NHis vector) (N); made in house; host or cells: E. coli T7 Express
T2 sequence (P42224 1-750): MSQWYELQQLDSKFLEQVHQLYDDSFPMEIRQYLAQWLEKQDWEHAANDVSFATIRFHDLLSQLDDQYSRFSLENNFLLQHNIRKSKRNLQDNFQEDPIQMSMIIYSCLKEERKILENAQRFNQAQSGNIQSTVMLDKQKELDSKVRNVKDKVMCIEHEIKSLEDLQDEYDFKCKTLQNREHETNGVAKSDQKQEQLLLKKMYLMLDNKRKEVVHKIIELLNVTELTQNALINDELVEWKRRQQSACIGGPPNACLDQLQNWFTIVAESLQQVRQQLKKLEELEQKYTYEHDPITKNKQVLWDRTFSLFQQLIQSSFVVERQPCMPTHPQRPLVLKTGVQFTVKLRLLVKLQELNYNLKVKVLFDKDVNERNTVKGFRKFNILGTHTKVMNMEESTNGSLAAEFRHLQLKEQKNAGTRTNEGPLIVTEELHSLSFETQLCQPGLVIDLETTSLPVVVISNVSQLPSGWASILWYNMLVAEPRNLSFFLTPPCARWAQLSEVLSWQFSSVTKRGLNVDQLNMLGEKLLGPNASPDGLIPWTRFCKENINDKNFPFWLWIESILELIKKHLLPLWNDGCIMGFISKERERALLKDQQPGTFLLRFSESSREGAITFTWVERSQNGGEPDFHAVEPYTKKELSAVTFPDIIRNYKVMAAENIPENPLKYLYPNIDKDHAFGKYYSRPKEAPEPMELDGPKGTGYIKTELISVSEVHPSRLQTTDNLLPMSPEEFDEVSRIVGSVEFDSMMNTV
Source text: Understanding the molecular determinants of kinetic rate constants of binding (k a, k d) can aid the design of pharmacological probes with longer target engagement, which is beneficial for drug efficacy and decreased toxicity. , We characterized the binding kinetics of 018-derived macrocycles by using grating-coupled interferometry (GCI). We used waveRAPID, a regeneration-free kinetic binding assay that applies sequential analyte pulses of increasing duration onto a GCI biosensor surface with an immobilized target (Figures A, and S3,S4, Table S2).
as §1, §2, §3

[6] = target: T2, STAT1; test: Fluorescence polarization competition assay with fluorescein-labelled pIFNGR1 docking site peptide probe; type: binding; settings: 10 nM fluorescein pIFNGR1 probe, STAT1 1.5 μM, 20 mM Tris pH 8.0, 300 mM NaCl, 0.1% Tween-20, 0.5 mM TCEP, 2.5% DMSO, room temperature; four parameter logistic fit; read-out: IC50 (FP competition, pIFNGR1 probe displacement)
[7] = target: T2, STAT1; test: Isothermal titration calorimetry (ITC) of peptide binding to STAT1; settings: average of 2–3 technical replicates, read-out: KD (ITC, summary Fig 2B)
Protocol: To determine affinities and thermodynamic profiles of binding, we performed isothermal titration calorimetry (ITC) experiments for peptides 1, 2, 3, 4, 7, and 8 (Figures A,B and S1,S2, Table S1). […] The experiments were repeated in two different buffer systems, TBST (50 mM Tris pH 8.0, 300 mM NaCl, 0.01% Tween-20) and PBST ([…], 150 mM NaCl, 0.01% Tween-20), to account for possible buffer protonation enthalpy artifacts. […]
Isothermal titration calorimetry (ITC)
ITC experiments were performed using a PEAQ ITC instrument (Malvern Panalytical) in either TBST (50 mM Tris pH 8.0, 300 mM NaCl, 0.5 mM TCEP, 0.01% Tween -20) or PBST (10 mM sodium phosphate pH 7.4, 150 mM NaCl, 0.01% Tween -20) as reaction buffers. STAT1 protein was buffer -exchanged into reaction buffer supplemented with 2% DMSO on a NAP -5 deslating column (Cytiv a #17085301) and its concentration was adjusted to 10 or 20 μM.
Peptides were diluted in reaction buffer from DMSO stocks to a matching 2% DMSO concentration. Peptide concentrations were adjusted to approximately 100-200 μM. ITC experiments were performed with STAT1 in the cell and peptides in the syringe at 25°C, with 750 RPM stirring, DP = 4 μcal/sec. 18 injections of 2 μl were performed over a 50 min titration.
Thermogram integra tion and isotherm fitting were performed using the PEAQ ITC analysis software (Malvern Panalytical ). Isotherms were fitted using a 1:1 binding model. Due to challenges in determining peptide concentrations with high accuracy , protein concentrations and stoichiometry (N=1.0) were kept constant during isotherm fitting, whereas peptide concentrations were allowed to vary. Fixing a single reactant concentration during fitting is acceptable given the sufficiently high C -values and isotherm curvature observed in the […]
Offset subtraction was implemented to remove injection heats.

[8] = replicate 1 (first listed run, Table S2)
[9] = replicate 2 (second listed run, Table S2)
[10] = replicate 3 (third listed run, Table S2)
[11] = replicate 4 (fourth listed run, Table S2)

T1 sequence (P40763 whole entry, species assumed, the tested form may be a part): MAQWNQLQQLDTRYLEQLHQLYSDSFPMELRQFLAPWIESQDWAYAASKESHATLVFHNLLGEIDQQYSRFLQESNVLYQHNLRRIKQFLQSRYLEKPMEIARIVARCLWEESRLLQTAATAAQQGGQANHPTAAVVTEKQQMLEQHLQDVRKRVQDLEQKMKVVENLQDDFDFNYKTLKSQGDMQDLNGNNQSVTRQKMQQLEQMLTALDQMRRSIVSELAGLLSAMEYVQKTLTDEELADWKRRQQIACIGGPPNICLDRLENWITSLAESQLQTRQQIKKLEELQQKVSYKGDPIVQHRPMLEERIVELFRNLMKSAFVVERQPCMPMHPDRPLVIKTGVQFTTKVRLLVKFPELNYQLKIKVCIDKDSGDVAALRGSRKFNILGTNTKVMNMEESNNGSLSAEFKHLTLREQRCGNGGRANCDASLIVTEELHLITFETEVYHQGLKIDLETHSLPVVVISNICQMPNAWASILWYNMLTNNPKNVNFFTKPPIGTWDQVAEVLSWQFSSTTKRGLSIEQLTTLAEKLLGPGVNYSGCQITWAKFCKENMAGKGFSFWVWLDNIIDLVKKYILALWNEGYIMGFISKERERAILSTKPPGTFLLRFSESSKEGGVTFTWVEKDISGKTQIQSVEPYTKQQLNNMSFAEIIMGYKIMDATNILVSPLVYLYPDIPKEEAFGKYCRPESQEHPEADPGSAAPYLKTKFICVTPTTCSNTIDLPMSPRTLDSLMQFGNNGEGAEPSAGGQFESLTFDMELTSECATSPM

Compound | KD [1] [nM] | KD [2] [nM] | KD [3, 8] | KD [3, 9] | STAT3 binding (GCI), in words ([3]; full-length STAT3, negligible Rmax at 10 μM classified as non-binding) | solubility (for ITC titration) [4] | Kd [5] [nM] | kd [5, 8] [s⁻¹] | kon at 0.5 µM [5, 8] [M⁻¹ s⁻¹] | kd [5, 9] [s⁻¹] | kon at 0.5 µM [5, 9] [M⁻¹ s⁻¹] | ka [3] [M⁻¹ s⁻¹] | Kd [3] [nM] | kon [3] [M⁻¹ s⁻¹] | kon at 0.5 µM [5, 10] [M⁻¹ s⁻¹] | kon at 0.5 µM [5, 11] [M⁻¹ s⁻¹] | IC50 [6] [nM] | Kd ([7]; PBST pH 7.4 (NaPi, 150 mM NaCl, 0.01% Tween-20)) [nM] | Kd ([7]; TBST pH 8.0) [nM]
STAT1 (signal transducer and activator of transcription 1), unphosphorylated not stated for the ITC sample | 24 ± 15 | 330 ± 20 |  |  |  |  |  |  |  |  |  |  |  |  |  |  |  |  | 
CC[C@H](C)[C@H](NC(=O)[C@H](Cc1ccccc1)NC(=O)[C@@H](NC(=O)[C@H](CS)NC(=O)[C@H](Cc1c[nH]c2ccccc12)NC(=O)[C@H](CCSC)NC(C)=O)C(C)C)C(=O)N[C@@H](Cc1c[nH]cn1)C(=O)NCC(=O)N[C@@H](Cc1c[nH]cn1)C(=O)N[C@@H](CC(=O)O)C(=O)NCC(=O)N[C@@H](CO)C(=O)N[C@@H](CC(N)=O)C(=O)N[C@@H](CCCCN)C(=O)NCC(=O)N[C@@H](CO)C(=O)N[C@@H](CCCCN)C(=O)N[C@@H](CS)C(=O)N[C@@H](Cc1ccc(O)cc1)C(=O)N[C@H](C(N)=O)[C@@H](C)O [Peptide 5] |  |  | n.b. | n.b. | not detected | insufficient solubility | 31.9 ± 4.3 | 0.0123 | 351000 | 0.0132 | 457000 |  |  |  |  |  |  |  | 
CC[C@H](C)[C@@H]1NC(=O)[C@H](Cc2ccccc2)NC(=O)[C@H](C(C)C)NC(=O)[C@@H](NC(=O)[C@H](Cc2c[nH]c3ccccc23)NC(=O)[C@H](CCSC)NC(C)=O)CSCc2ccccc2CSC[C@@H](C(=O)N[C@@H](Cc2ccc(O)cc2)C(=O)N[C@H](C(N)=O)[C@@H](C)O)NC(=O)[C@H](CCCCN)NC(=O)[C@H](CO)NC(=O)CNC(=O)[C@H](CCCCN)NC(=O)[C@H](CC(N)=O)NC(=O)[C@H](CO)NC(=O)CNC(=O)[C@H](CC(=O)O)NC(=O)[C@H](Cc2c[nH]cn2)NC(=O)CNC(=O)[C@H](Cc2c[nH]cn2)NC1=O [Peptide 6] |  |  |  |  |  | insufficient solubility | 1.3 ± 1.1 |  | 377000 |  | 304000 | 280000 | 196 ± 12 | 252000 | 186000 | 384000 |  |  | 
CC[C@H](C)[C@@H]1NC(=O)[C@@H]2CSCc3ccccc3CSC[C@H](NC(=O)CNC(=O)[C@H](CCCCN)NC(=O)[C@H](CC(N)=O)NC(=O)[C@H](CO)NC(=O)CNC(=O)[C@H](CC(=O)O)NC(=O)[C@H](Cc3c[nH]cn3)NC(=O)CNC(=O)[C@H](Cc3c[nH]cn3)NC1=O)C(=O)N[C@@H](CCCCN)C(=O)N[C@@H]([C@@H](C)O)C(=O)N[C@@H](Cc1ccc(O)cc1)C(=O)N[C@@H]([C@@H](C)O)C(=O)NCCC(=O)NCCC(=O)N[C@@H](CCSC)C(=O)N[C@@H](Cc1c[nH]c3ccccc13)C(=O)N[C@@H](CO)C(=O)N[C@@H](C(C)C)C(=O)N2 [Peptide 4] (cyclo(CIHGHDGSNKGCKTYT[βAla][βAla]MWSV); linker 1-12 via oXylylene) |  |  |  |  |  |  |  |  | 658000 |  | 594000 | 239000 | 248 ± 10.6 | 257000 | 277000 | 865000 | 1100 | 14 | 24
